Experimental data: ChEMBL document CHEMBL5291721, “A preclinical secondary pharmacology resource illuminates target-adverse drug reaction associations of marketed drugs” (Nat Commun, 2023)

Columns and labels:
[1] = target: Sodium-dependent serotonin transporter (Homo sapiens, UniProt P31645)
[2] = target: Voltage-gated inwardly rectifying potassium channel KCNH2 (Homo sapiens, UniProt Q12809); type: functional; conditions: read-out: AC50
[3] = target: 3',5'-cyclic-AMP phosphodiesterase 4D (Homo sapiens, UniProt Q08499); type: functional
Adenosine receptor A2a = Adenosine receptor A2a (Homo sapiens, UniProt P29274)
Adenosine receptor A2a, sequence (P29274 whole entry): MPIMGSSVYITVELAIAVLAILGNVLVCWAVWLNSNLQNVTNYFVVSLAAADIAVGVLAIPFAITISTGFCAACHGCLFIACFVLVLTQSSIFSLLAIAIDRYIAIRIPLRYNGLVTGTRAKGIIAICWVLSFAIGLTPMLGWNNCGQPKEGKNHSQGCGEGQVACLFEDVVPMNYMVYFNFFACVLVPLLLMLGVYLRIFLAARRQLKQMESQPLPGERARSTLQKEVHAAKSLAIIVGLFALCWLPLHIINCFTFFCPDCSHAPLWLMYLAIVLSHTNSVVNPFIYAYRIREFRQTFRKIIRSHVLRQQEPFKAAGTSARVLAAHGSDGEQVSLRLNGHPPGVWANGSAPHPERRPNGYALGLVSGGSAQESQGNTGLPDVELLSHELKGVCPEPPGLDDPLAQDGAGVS

[4] = target: Sodium-dependent noradrenaline transporter (Homo sapiens, UniProt P23975)
Sodium-dependent noradrenaline transporter, sequence (P23975 whole entry): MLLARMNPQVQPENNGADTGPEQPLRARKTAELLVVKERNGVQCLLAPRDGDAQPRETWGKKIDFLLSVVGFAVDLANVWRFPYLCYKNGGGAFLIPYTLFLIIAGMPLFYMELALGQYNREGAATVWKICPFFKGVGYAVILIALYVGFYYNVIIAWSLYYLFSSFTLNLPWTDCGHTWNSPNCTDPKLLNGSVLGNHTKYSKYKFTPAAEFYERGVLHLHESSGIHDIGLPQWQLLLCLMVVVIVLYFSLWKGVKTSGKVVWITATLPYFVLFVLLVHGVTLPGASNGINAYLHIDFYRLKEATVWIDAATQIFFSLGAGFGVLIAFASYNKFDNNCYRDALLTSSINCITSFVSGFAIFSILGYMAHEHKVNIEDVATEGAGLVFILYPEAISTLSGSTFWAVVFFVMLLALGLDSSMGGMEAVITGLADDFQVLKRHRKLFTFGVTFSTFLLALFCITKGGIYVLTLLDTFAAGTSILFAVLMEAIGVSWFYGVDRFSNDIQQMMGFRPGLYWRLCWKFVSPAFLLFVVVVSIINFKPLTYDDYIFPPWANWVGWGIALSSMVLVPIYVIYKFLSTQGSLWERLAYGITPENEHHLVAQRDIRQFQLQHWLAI

[5] = target: Beta-1 adrenergic receptor (Homo sapiens, UniProt P08588); type: functional
Beta-1 adrenergic receptor, sequence (P08588 whole entry): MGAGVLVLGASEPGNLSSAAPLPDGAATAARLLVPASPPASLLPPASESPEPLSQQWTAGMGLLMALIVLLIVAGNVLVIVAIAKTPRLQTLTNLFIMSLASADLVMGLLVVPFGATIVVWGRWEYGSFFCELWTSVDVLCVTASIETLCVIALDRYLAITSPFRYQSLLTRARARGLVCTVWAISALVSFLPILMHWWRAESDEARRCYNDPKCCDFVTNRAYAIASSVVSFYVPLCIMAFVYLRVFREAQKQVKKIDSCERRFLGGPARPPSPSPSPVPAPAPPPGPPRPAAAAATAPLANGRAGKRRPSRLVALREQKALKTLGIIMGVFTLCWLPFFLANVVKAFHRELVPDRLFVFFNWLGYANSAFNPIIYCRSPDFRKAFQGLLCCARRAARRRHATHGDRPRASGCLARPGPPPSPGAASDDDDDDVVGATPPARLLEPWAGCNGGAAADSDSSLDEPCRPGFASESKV

Adenosine receptor A3 = target: T1, Adenosine receptor A3 (Homo sapiens, UniProt P0DMS8)
T1 sequence (P0DMS8 whole entry): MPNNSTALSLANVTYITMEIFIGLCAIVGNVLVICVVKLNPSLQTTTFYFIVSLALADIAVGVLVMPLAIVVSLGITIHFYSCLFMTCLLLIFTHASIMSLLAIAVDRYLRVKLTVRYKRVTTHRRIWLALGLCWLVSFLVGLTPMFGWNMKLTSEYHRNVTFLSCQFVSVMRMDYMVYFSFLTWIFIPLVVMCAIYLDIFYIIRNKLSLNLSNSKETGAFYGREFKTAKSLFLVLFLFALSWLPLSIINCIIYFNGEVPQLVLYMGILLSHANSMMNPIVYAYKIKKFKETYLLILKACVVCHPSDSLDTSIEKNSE

Endothelin-1 receptor = target: T2, Endothelin-1 receptor (Homo sapiens, UniProt P25101)
T2 sequence (P25101 whole entry): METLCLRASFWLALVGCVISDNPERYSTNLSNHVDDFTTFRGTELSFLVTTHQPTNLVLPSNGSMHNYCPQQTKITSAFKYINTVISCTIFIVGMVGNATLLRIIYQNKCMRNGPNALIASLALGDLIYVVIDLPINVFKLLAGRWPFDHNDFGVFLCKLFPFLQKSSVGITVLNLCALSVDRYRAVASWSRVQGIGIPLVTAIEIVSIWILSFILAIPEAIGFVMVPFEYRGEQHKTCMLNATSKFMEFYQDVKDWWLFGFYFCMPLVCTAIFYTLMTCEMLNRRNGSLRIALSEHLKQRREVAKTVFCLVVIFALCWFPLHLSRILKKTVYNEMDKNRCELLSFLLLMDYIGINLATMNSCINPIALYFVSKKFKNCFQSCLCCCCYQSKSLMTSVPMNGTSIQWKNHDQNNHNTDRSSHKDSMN

[6] = target: Growth hormone secretagogue receptor type 1 (Homo sapiens, UniProt Q92847)
Growth hormone secretagogue receptor type 1, sequence (Q92847 whole entry): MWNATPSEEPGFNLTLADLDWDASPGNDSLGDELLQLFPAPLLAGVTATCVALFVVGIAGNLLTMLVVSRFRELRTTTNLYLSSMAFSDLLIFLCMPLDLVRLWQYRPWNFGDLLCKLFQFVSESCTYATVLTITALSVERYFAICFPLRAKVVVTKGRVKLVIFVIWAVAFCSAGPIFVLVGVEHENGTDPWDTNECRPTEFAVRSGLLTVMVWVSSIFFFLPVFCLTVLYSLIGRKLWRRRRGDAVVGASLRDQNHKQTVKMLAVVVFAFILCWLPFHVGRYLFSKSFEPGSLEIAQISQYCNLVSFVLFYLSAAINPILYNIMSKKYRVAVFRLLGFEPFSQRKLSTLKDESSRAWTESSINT

[7] = target: T3, Muscarinic acetylcholine receptor M2 (Homo sapiens, UniProt P08172); type: functional, cell-based
T3 sequence (P08172 whole entry): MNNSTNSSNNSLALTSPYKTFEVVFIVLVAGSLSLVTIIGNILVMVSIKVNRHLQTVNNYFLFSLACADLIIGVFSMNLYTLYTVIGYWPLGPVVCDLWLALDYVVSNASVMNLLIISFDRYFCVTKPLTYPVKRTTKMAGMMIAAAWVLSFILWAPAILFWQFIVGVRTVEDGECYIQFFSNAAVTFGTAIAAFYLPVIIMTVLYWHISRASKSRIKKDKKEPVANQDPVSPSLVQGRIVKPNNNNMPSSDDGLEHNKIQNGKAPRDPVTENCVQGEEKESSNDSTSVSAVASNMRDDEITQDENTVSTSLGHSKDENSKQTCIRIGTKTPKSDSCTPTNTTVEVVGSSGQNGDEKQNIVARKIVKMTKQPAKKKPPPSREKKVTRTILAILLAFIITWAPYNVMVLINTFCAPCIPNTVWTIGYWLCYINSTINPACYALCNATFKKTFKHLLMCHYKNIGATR

[8] = target: T4, 5-hydroxytryptamine receptor 1A (Homo sapiens, UniProt P08908); type: functional, cell-based
T4 sequence (P08908 whole entry): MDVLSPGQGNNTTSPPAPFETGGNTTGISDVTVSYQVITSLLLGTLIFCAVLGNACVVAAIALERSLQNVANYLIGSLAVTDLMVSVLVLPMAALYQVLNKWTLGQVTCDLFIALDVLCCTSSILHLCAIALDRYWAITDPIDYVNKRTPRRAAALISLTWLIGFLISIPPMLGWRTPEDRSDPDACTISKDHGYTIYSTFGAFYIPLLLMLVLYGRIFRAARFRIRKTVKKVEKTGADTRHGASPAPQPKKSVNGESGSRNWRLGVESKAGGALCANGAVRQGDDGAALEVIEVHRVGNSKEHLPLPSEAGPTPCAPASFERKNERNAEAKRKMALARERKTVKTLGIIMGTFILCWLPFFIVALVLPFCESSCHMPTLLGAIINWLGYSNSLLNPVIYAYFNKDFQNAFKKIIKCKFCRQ

[9] = target: cGMP-inhibited 3',5'-cyclic phosphodiesterase 3A (Homo sapiens, UniProt Q14432); type: functional
cGMP-inhibited 3',5'-cyclic phosphodiesterase 3A, sequence (Q14432 whole entry): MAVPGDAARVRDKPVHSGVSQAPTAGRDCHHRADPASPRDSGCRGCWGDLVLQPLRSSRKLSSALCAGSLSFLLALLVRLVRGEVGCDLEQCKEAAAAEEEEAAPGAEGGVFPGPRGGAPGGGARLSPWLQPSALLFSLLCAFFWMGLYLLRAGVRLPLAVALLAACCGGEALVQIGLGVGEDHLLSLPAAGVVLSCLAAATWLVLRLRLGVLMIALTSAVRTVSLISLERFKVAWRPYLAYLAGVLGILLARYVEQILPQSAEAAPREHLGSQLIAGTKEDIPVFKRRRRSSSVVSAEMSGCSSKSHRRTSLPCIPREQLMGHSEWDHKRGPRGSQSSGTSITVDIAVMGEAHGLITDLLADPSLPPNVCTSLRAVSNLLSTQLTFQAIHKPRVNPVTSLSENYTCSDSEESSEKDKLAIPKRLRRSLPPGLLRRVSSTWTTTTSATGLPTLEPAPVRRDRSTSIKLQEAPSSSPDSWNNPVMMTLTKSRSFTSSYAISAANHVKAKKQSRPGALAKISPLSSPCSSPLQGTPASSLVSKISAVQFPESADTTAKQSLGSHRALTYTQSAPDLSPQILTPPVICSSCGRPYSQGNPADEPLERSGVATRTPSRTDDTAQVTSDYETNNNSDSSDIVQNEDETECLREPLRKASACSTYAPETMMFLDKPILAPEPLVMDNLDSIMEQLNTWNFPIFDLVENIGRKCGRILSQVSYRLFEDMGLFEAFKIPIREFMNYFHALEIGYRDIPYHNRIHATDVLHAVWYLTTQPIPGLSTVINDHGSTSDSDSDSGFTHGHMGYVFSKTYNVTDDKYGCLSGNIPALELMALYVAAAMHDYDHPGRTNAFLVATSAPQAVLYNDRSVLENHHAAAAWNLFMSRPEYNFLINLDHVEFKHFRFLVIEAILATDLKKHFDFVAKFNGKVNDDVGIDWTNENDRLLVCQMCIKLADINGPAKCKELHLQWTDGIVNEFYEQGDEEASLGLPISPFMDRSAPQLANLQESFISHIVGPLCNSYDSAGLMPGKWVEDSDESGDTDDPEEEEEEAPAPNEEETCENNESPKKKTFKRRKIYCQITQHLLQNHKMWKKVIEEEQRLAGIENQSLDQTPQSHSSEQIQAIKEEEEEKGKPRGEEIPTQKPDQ

D(3) dopamine receptor = D(3) dopamine receptor (Homo sapiens, UniProt P35462)
D(3) dopamine receptor, sequence (P35462 whole entry): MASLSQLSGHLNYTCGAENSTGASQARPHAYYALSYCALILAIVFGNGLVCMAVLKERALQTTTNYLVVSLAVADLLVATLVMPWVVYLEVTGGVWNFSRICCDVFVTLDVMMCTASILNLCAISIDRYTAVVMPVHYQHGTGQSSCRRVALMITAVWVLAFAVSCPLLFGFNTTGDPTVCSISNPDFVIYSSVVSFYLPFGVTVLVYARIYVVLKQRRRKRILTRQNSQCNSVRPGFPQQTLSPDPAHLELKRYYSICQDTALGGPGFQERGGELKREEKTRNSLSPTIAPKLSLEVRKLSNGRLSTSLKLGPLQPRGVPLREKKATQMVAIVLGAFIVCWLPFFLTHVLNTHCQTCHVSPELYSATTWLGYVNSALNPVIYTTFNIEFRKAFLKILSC

[10] = target: T5, Cholecystokinin receptor type A (Homo sapiens, UniProt P32238)
T5 sequence (P32238 whole entry): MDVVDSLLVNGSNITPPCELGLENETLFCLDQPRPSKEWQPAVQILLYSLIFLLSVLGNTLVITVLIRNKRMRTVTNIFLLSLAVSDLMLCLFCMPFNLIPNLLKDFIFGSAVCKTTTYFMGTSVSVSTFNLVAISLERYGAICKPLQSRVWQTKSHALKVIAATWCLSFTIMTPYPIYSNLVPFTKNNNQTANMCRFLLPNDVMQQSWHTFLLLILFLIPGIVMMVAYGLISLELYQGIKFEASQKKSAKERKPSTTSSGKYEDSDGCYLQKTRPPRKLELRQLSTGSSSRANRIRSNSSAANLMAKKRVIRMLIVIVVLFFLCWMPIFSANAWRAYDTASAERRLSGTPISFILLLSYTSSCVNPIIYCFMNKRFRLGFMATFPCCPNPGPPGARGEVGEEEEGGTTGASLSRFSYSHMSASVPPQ

Mu-type opioid receptor = Mu-type opioid receptor (Homo sapiens, UniProt P35372); assay: biochemical; type: functional
Mu-type opioid receptor, sequence (P35372 whole entry): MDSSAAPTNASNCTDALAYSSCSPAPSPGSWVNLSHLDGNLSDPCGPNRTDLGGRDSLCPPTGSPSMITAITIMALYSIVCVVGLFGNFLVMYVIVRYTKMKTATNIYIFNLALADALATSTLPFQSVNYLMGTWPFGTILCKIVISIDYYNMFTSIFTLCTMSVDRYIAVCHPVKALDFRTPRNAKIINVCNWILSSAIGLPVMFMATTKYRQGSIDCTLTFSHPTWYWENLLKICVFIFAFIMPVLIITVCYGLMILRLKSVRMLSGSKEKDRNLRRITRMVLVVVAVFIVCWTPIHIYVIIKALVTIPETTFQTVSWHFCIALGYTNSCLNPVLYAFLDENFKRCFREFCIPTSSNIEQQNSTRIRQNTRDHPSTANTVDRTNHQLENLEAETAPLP
Also: assay procedure not described here.

Voltage-gated inwardly rectifying potassium channel KCNH2, sequence (Q12809 whole entry): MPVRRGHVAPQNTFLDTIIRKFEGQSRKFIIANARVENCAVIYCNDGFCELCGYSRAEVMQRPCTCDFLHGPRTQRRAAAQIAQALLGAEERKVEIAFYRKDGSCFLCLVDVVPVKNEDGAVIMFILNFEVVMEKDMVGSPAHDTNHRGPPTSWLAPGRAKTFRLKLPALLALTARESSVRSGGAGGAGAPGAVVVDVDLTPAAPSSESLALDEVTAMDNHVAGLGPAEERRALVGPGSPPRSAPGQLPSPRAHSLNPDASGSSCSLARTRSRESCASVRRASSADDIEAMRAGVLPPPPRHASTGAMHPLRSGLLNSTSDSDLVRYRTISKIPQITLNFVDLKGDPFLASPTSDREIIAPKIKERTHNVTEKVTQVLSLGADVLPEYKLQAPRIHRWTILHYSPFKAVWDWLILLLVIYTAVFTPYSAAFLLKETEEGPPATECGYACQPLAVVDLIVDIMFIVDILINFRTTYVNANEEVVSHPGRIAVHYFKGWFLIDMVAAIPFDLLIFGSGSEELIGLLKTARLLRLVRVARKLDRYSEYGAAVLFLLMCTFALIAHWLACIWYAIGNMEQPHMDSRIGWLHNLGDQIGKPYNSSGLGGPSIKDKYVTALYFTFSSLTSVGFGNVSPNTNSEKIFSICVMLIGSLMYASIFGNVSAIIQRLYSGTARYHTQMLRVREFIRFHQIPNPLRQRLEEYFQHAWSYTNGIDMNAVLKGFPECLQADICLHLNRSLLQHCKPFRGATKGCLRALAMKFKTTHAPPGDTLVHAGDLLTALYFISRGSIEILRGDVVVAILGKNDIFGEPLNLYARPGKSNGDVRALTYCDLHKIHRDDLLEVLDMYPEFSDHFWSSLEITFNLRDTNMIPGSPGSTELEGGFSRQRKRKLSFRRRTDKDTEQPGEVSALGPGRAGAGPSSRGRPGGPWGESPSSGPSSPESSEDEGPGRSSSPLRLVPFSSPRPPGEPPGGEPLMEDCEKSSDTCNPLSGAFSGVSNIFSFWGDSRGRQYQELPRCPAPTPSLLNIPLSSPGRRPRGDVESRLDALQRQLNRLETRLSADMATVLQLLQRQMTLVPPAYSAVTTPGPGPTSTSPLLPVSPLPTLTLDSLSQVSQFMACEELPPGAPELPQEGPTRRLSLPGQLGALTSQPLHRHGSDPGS

CCCC(C)(COC(N)=O)COC(=O)NC(C)C (stereo unspecified) [CARISOPRODOL]
AC50 [1]: > 10 µM | AC50 [2]: > 30 µM | AC50 [3]: > 30 µM | AC50 (Adenosine receptor A2a): > 30 µM | AC50 [4]: > 10 µM | AC50 [5]: > 10 µM | AC50 (Adenosine receptor A3): > 30 µM | AC50 (Endothelin-1 receptor): > 30 µM | AC50 [6]: > 30 µM | AC50 [7]: > 10 µM | AC50 [8]: > 10 µM | AC50 [9]: > 30 µM | AC50 (D(3) dopamine receptor): > 10 µM | AC50 [10]: > 30 µM

N[C@H](Cc1cc(I)c(Oc2cc(I)c(O)c(I)c2)c(I)c1)C(=O)O [DEXTROTHYROXINE]
AC50 [1]: > 30 µM | AC50 [2]: > 30 µM | AC50 [3]: 0.26 µM | AC50 (Adenosine receptor A2a): > 30 µM | AC50 [4]: > 30 µM | AC50 [5]: > 10 µM | AC50 (Adenosine receptor A3): 12.5 µM | AC50 (Endothelin-1 receptor): > 30 µM | AC50 [6]: > 30 µM | AC50 [7]: > 10 µM | AC50 [8]: > 10 µM | AC50 [9]: > 10 µM | AC50 (D(3) dopamine receptor): > 10 µM | AC50 [10]: > 30 µM

COC(=O)N[C@@H](C)CNc1nccc(-c2cn(C(C)C)nc2-c2cc(Cl)cc(NS(C)(=O)=O)c2F)n1 [ENCORAFENIB]
AC50 (Mu-type opioid receptor): > 30 µM | AC50 [1]: > 30 µM | AC50 [2]: > 30 µM | AC50 [3]: 4.4 µM | AC50 (Adenosine receptor A2a): > 30 µM | AC50 [4]: > 30 µM | AC50 [5]: > 30 µM | AC50 (Adenosine receptor A3): > 30 µM | AC50 [6]: > 30 µM | AC50 [7]: > 30 µM | AC50 [8]: > 30 µM | AC50 [9]: 25 µM | AC50 (D(3) dopamine receptor): > 30 µM | AC50 [10]: > 30 µM

Nc1nc(F)nc2c1ncn2[C@@H]1O[C@H](COP(=O)(O)O)[C@@H](O)[C@@H]1O [FLUDARABINE PHOSPHATE]
AC50 (Mu-type opioid receptor): > 30 µM | AC50 [1]: > 30 µM | AC50 [2]: > 30 µM | AC50 [3]: > 30 µM | AC50 (Adenosine receptor A2a): > 30 µM | AC50 [4]: > 30 µM | AC50 [5]: > 30 µM | AC50 (Adenosine receptor A3): > 30 µM | AC50 [6]: > 30 µM | AC50 [7]: > 30 µM | AC50 [8]: > 30 µM | AC50 [9]: > 30 µM | AC50 (D(3) dopamine receptor): > 30 µM | AC50 [10]: > 30 µM

CC(=O)Nc1c(I)c(C(=O)N[C@H]2C(O)O[C@H](CO)[C@@H](O)[C@@H]2O)c(I)c(N(C)C(C)=O)c1I (stereo partly specified) [METRIZAMIDE]
AC50 [1]: > 10 µM | AC50 [2]: > 30 µM | AC50 [3]: > 30 µM | AC50 (Adenosine receptor A2a): > 10 µM | AC50 [4]: > 10 µM | AC50 [5]: > 10 µM | AC50 (Adenosine receptor A3): > 10 µM | AC50 [6]: > 10 µM | AC50 [7]: > 10 µM | AC50 [8]: > 10 µM | AC50 [9]: > 30 µM | AC50 (D(3) dopamine receptor): > 30 µM | AC50 [10]: > 10 µM

CCOC(=O)Nc1ccc2c(c1)N(C(=O)CCN1CCOCC1)c1ccccc1S2 [MORICIZINE]
AC50 [1]: > 30 µM | AC50 [2]: 19 µM | AC50 [3]: 0.77 µM | AC50 (Adenosine receptor A2a): > 30 µM | AC50 [4]: > 30 µM | AC50 [5]: > 30 µM | AC50 (Adenosine receptor A3): > 30 µM | AC50 (Endothelin-1 receptor): > 30 µM | AC50 [6]: > 30 µM | AC50 [7]: > 30 µM | AC50 [8]: 13 µM | AC50 [9]: > 30 µM | AC50 (D(3) dopamine receptor): > 30 µM | AC50 [10]: > 30 µM

O=C1CN=C(c2ccccc2)c2cc(Cl)ccc2N1 [NORDAZEPAM]
AC50 [1]: > 10 µM | AC50 [3]: 12 µM | AC50 (Adenosine receptor A2a): > 30 µM | AC50 [4]: > 10 µM | AC50 [5]: > 10 µM | AC50 (Adenosine receptor A3): > 30 µM | AC50 (Endothelin-1 receptor): > 30 µM | AC50 [6]: > 30 µM | AC50 [7]: > 10 µM | AC50 [8]: > 10 µM | AC50 [9]: > 30 µM | AC50 (D(3) dopamine receptor): > 10 µM | AC50 [10]: > 30 µM
